Data from publication PMC11345841, “Exploring 2-Sulfonylpyrimidine Warheads as Acrylamide Surrogates for Targeted Covalent Inhibition: A BTK Story” (Journal of Medicinal Chemistry, 2024).
Where two headings read alike, the source gives them in different places.

Experiments:
Test in all cases: KINOMEscan ScanTK
Assay type in all cases: binding
FLT3(N841I) = molecular target: T1, FLT3(N841I) (Homo sapiens, UniProt P36888, N841I)
T1 construct: purchased Eurofins DiscoverX KINOMEscan (scanTK)
T1 sequence (P36888 27-993 N841I): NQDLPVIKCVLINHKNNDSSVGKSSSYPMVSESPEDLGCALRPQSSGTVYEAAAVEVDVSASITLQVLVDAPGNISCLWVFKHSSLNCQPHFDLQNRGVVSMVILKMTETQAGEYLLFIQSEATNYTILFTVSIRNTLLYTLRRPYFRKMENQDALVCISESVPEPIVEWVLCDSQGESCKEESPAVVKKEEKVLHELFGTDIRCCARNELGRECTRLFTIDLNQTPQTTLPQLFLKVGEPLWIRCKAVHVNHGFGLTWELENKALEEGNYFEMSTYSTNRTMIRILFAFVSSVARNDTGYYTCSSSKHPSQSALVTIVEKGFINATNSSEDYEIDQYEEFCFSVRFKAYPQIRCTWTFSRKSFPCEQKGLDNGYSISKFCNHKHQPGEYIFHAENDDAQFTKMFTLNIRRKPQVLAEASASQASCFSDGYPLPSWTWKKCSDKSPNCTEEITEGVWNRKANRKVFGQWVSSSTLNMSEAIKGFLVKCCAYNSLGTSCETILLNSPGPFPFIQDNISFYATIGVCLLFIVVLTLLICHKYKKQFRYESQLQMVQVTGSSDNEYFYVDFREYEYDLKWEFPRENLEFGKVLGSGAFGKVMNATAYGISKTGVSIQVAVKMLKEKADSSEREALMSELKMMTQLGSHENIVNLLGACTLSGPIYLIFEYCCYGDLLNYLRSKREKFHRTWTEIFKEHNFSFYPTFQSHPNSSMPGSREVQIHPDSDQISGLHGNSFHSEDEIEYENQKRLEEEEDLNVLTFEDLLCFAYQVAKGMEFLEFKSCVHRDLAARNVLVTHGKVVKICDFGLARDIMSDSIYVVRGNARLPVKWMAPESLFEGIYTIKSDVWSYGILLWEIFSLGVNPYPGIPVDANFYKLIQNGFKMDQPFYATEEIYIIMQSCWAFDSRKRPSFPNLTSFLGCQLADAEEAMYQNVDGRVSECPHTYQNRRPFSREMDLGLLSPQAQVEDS

DDR1 = molecular target: T2, DDR1 (Homo sapiens, UniProt Q08345)
T2 construct: purchased Eurofins DiscoverX KINOMEscan (scanTK)

EPHA1 = molecular target: T3, EPHA1 (Homo sapiens, UniProt P21709)
T3 construct: purchased Eurofins DiscoverX KINOMEscan (scanTK)
T3 sequence (P21709 26-976): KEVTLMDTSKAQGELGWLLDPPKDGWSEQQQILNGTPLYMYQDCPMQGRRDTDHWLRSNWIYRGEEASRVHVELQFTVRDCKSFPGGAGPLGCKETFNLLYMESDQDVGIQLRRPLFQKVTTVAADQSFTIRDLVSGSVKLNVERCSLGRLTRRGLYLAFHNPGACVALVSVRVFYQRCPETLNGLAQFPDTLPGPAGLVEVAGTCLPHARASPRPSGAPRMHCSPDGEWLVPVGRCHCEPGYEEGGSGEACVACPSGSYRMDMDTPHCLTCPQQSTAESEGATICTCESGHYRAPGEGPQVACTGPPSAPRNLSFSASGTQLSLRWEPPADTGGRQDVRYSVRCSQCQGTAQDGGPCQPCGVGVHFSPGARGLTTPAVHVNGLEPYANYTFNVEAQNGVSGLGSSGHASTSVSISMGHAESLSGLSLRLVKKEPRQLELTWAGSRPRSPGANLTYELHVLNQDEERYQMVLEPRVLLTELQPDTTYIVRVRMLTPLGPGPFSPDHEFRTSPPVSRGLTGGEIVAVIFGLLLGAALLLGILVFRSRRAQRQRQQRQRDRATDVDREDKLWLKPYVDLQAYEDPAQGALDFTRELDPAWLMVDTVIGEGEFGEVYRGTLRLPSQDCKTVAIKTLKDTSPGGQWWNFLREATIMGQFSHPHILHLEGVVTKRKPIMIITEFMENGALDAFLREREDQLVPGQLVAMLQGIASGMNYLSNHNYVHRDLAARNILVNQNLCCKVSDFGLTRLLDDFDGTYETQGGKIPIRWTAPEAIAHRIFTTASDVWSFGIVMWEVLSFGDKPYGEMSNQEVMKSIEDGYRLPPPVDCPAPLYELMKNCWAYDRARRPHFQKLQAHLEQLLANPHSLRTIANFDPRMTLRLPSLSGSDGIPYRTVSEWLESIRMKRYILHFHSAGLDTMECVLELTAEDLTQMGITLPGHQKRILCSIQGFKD

INSR = molecular target: T4, INSR (Homo sapiens, UniProt P06213)
T4 construct: purchased Eurofins DiscoverX KINOMEscan (scanTK)
T4 sequence (P06213 28-1382): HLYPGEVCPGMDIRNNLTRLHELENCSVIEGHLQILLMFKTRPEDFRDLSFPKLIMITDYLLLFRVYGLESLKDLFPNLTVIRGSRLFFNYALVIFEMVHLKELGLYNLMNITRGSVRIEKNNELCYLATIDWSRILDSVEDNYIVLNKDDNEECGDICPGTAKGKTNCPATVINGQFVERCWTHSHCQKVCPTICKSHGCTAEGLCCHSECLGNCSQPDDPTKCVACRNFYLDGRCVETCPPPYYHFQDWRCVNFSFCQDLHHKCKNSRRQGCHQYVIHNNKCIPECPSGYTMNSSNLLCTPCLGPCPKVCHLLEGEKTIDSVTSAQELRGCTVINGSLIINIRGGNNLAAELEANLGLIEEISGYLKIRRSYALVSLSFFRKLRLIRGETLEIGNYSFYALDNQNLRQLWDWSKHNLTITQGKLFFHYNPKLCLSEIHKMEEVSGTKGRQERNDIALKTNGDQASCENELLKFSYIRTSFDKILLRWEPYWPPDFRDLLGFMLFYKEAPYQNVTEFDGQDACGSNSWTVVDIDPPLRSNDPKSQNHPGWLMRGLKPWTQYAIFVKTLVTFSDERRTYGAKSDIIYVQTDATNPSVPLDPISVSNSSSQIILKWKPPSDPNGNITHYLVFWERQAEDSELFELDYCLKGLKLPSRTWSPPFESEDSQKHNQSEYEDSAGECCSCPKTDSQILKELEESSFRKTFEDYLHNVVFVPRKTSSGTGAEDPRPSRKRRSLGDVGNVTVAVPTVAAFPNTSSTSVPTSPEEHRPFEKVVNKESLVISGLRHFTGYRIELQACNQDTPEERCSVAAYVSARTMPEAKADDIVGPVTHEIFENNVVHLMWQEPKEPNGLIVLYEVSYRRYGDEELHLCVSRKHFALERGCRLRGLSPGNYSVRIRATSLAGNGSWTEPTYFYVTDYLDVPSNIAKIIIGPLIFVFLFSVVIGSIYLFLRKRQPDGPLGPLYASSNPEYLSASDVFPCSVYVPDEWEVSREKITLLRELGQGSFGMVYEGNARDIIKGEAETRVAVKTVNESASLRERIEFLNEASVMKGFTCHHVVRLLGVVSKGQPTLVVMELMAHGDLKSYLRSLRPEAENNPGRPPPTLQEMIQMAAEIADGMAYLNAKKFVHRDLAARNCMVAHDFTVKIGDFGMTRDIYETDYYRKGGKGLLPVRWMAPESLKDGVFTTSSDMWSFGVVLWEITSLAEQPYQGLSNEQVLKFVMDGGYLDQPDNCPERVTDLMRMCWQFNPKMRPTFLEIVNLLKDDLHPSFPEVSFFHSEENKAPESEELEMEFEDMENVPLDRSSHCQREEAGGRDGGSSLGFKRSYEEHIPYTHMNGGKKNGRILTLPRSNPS

T2 sequence (Q08345 19-913): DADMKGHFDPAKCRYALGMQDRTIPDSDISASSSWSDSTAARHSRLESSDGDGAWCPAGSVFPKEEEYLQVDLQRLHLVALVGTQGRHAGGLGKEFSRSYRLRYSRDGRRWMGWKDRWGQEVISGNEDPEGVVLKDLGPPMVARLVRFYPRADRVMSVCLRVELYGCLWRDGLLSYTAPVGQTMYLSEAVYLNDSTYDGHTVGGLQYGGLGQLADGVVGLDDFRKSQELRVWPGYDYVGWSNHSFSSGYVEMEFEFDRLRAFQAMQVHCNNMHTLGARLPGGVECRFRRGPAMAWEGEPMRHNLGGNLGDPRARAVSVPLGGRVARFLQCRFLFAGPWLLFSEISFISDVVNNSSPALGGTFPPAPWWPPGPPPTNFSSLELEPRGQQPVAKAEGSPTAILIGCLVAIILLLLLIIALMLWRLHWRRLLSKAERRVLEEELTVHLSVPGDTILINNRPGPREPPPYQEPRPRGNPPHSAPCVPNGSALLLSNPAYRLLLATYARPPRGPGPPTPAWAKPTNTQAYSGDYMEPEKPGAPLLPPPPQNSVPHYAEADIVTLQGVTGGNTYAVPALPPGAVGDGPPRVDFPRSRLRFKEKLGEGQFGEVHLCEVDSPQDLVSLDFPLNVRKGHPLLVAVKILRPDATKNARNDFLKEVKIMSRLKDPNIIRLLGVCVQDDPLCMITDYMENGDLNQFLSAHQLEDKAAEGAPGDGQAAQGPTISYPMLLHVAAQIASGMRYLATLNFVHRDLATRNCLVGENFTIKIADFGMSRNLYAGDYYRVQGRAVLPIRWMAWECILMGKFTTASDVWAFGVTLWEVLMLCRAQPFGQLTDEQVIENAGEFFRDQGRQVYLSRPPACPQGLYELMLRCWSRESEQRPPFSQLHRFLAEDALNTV

Row | Compound | difference in %Control versus compound Ib at 1 µM (FLT3(N841I); @1000nM) [%] | remaining binding at 1 µM (FLT3(N841I); @1000nM, read-out: %Control) [%] | remaining binding at 1 µM (FLT3(N841I); read-out: %Control @1000nM) [%] | difference in %Control from compound Ib at 1 µM (DDR1; @1000nM) [%] | remaining binding at 1 µM (DDR1; @1000nM, read-out: %Control) [%] | remaining binding at 1 µM (DDR1; read-out: %Control @1000nM) [%] | difference in %Control versus compound Ib at 1 µM (EPHA1; @1000nM) [%] | remaining binding at 1 µM (EPHA1; @1000nM, read-out: %Control) [%] | remaining binding at 1 µM (EPHA1; read-out: %Control @1000nM) [%] | difference in %Control versus compound Ib at 1 µM (INSR; @1000nM) [%] | remaining binding at 1 µM (INSR; @1000nM, read-out: %Control) [%] | remaining binding at 1 µM (INSR; read-out: %Control @1000nM) [%]
1 | Cc1cnc(S(C)(=O)=O)nc1N1CCCC(n2nc(-c3ccc(Oc4ccccc4)cc3)c3c(N)ncnc32)C1 (stereo not drawn) [Compound 8a, 1-(1-(5-Methyl-2-(methylsulfonyl)pyrimidin-4-yl)piperidin-3-yl)-3-(4-phenoxyphenyl)-1H-pyrazolo[3,4-d]pyrimidin-4-amine] | 40 | 59 | 59 | 5 | 83 | 83 | 9 | 81 | 81 | -5 | 95 | 95
2 | C=CC(=O)N1CCC[C@@H](n2nc(-c3ccc(Oc4ccccc4)cc3)c3c(N)ncnc32)C1 [Compound 1g, Ibrutinib, reference compound] |  |  |  |  | 78 | 78 |  | 72 | 72 |  | 100 | 100
3 | CNC(=O)c1cnc(S(C)(=O)=O)nc1N1CCCC(n2nc(-c3ccc(Oc4ccccc4)cc3)c3c(N)ncnc32)C1 (stereo not drawn) [Compound 8d, 4-(3-(4-Amino-3-(4-phenoxyphenyl)-1H-pyrazolo[3,4-d]pyrimidin-1-yl)piperidin-1-yl)-N-methyl-2-(methylsulfonyl)pyrimidine-5-carboxamide] | 37 | 56 | 56 | -14 | 64 | 64 | -6 | 66 | 66 | 0 | 100 | 100

Continued, values first:

Row | difference in %Control versus compound Ib at 1 µM (FLT3(N841I); @1000nM) [%] | remaining binding at 1 µM (FLT3(N841I); @1000nM, read-out: %Control) [%] | remaining binding at 1 µM (FLT3(N841I); read-out: %Control @1000nM) [%] | difference in %Control from compound Ib at 1 µM (DDR1; @1000nM) [%] | remaining binding at 1 µM (DDR1; @1000nM, read-out: %Control) [%] | remaining binding at 1 µM (DDR1; read-out: %Control @1000nM) [%] | difference in %Control versus compound Ib at 1 µM (EPHA1; @1000nM) [%] | remaining binding at 1 µM (EPHA1; @1000nM, read-out: %Control) [%] | remaining binding at 1 µM (EPHA1; read-out: %Control @1000nM) [%] | difference in %Control versus compound Ib at 1 µM (INSR; @1000nM) [%] | remaining binding at 1 µM (INSR; @1000nM, read-out: %Control) [%] | remaining binding at 1 µM (INSR; read-out: %Control @1000nM) [%] | Compound
4 | 54 | 73 | 73 | -14 | 64 | 64 | 20 | 92 | 92 | 0 | 100 | 100 | CCOC(=O)c1cnc(S(C)(=O)=O)nc1N1CCC[C@@H](n2nc(-c3ccc(Oc4ccccc4)cc3)c3c(N)ncnc32)C1 [Compound 8c, Ethyl (R)-4-(3-(4-Amino-3-(4-phenoxyphenyl)-1H-pyrazolo[3,4-d]pyrimidin-1-yl)piperidin-1-yl)-2-(methylsulfonyl)pyrimidine-5-carboxylate]
5 | 43 | 62 | 62 | -18 | 60 | 60 | -16 | 56 | 56 | -5 | 95 | 95 | COC(=O)c1cnc(S(C)(=O)=O)nc1N1CCCC(n2nc(-c3ccc(Oc4ccccc4)cc3)c3c(N)ncnc32)C1 (stereo not drawn) [Compound 8b, Methyl 4-(3-(4-Amino-3-(4-phenoxyphenyl)-1H-pyrazolo[3,4-d]pyrimidin-1-yl)piperidin-1-yl)-2-(methylsulfonyl)pyrimidine-5-carboxylate]
